Data from PMC6993587, “Detection of EXP1-Specific CD4+ T Cell Responses Directed Against a Broad Range of Epitopes Including Two Promiscuous MHC Class II Binders During Acute Plasmodium falciparum Malaria” (Frontiers in Immunology, 2020).

Tested on: CD8+ T cells (PBMCs of malaria patients)
Assay: EXP1-specific CD8+ T cell response, ICS for IFNγ after in vitro culture
Assay type: cell-based, human
Details: patients HH-16, HH-18, HH-20 and HH-25; coincided with a CD4+ T cell response against the same peptide
Protocol: Cryopreserved PBMCs were thawed and cultivated at 1–5 × 10^6 cells/ml for optimal results in 500 μl of R10 medium (RPMI 1640 medium with 10% FCS (Sigma Aldrich), 1% HEPES buffer and 1% Penicillin-Streptomycin). PBMCs were stimulated with EXP1 peptide pool 1 [EXP1 peptide 1-10 (EXP1-P01-10)], pool 2 (EXP1-P11-20) or pool 3 (EXP1-P21-31) (Table 2) at a final concentration of 10 μg/ml, together with 1 μg/ml of anti-CD28 and anti-CD49d antibodies [BD FastImmune™, clone: L293 (CD28) and clone: L25 (CD49d)] for 14 days. Medium with recombinant IL-2 (50 U/ml) was added when necessary. After 14 days, cells were re-stimulated with single EXP1-peptides (final concentration 10 μg/ml) and then assayed for interferon-γ (IFNγ) production by ELISPOT and intracellular cytokine staining (ICS) as previously described ([28]).
ICS was performed as previously described ([26], [28]). 5 × 10^5 PBMCs were stimulated with the corresponding EXP1 peptide at a final concentration of 10 μg/ml before blocking the secretion with 10 μg/ml Brefeldin A (Sigma Aldrich) 1 h after stimulation. […] Cells were then analyzed on a BD LSRFortessa (BD Bioscience). […]

KKGSGEPLIDVHDLI [EXP1-P09, overlapping peptide of P. falciparum EXP1, aa 40–54]
CD8+ T cell response: CD8+ T cell response
